Laboratory results as given in patent US9274100B2, “Method for optical measuring variations of cell membrane conductance” (OSPEDALE SAN RAFFAELE S.R.L., priority 2009, dated 2016).

How the values were obtained:
[1] = test system: HeLa cells; assay: Optical detection of changes in plasma membrane conductance induced by streptolysin-O (fast-VSD, electric current pulses, internal control); format: cell-based; conditions: increasing streptolysin-O concentration (50, 100 and 150 units), hyperpolarising and depolarising responses
Description: (§1) Before the experiment, cells were washed with a Krebs-Ringer's solution buffered with HEPES (KRH; in mM: 150 NaCl, 5 KCl, 1.2 MgSO4, 1.2 KH2PO4, 2 CaCl2, 10 glucose, and 10 HEPES, pH 7.4) and incubated with […] di-4-ANEPPS, a fast-VSD (Invitrogen).
(§2) Conductance changes were monitored by measuring the change in fluorescence induced by electric current pulses, quantified as the difference between the mean of plateau values (either positive or negative, depending on the type of stimulus and geometry of the cell) and the mean of pre-stimulation values divided by the mean of pre-stimulation values, ΔF %. As detailed above, normalisation for the values prevailing before stimulation provided a correction for dye bleaching during the experiment, so that fluorescence changes produced by additional stimuli could be compared. […]
(§3) The responsivity to the molecule active on membrane permeability was determined according to two different protocols: • Estimation of conductance with internal control (responses, before and after exposure to the experimental treatment, measured on the same pixels). […]
(§4) Afterward, membrane potential changes evoked by current pulses of fixed intensity were calculated within the same subcellular regions identified by the functional mask after exposure to the experimental treatment. […]

[2] = test system: HeLa cells; assay: Optical detection of changes in membrane conductance induced by aspecific permeabilization (fast-VSD, electric current pulses, internal control); format: cell-based; conditions: measures up to four minutes after administration, conductance normalised to value at t=0
Description: as §1, §2, §3, §4

Substance | Fast-VSD fluorescence variation during unipolar square pulse [1] | effect on membrane conductance ([2]; 0.05% volume) | effect on membrane conductance ([2]; 0.5% volume)
streptolysin-O: bacterial protein able to insert into the eukaryotic plasma membrane where it forms a non selective ionic channel | clear reduction in the fluorescence variation | – | –
triton X-100 | – | negligible effect | marked drop
